Results reported in article PMC11719397, “Monophthalates of betulinic acid and related pentacyclic triterpenes inhibit efficiently the SOS-mediated nucleotide exchange and impact PI3K/AKT signaling in oncogenic K-RAS4B proteins” (RSC Advances, 2025).
Converted amounts (≈) assume the structure as drawn.

Assays:
[1] = biological target: T1, K-RAS4B^G12D (Homo sapiens, UniProt P01116, G12D); assay: cell-based; parameters: a fusion protein of LgBiT and full-length RAS; a fusion protein of SmBiT(q) and full-length RAS in cells; expressed in transfected cells; host or cells: HEK239T (so in the source); conditions: live cells; displacement of BI2852 from the K-Ras4B SI/II binding-site; read-out: K-RAS4B^G12D NanoBRET TE KD
Description: (§1) To obtain further information on the mode of action, selected GDP/GTP exchange inhibitors were studied in additional assays (Table 3). A target engagement assay, which is based on bioluminescence resonance energy transfer (BRET), was used to measure target engagement at protein complexes in live cells (Fig. 5a). The BRET effect results from an energy transfer between the target luciferase fusion protein and a cell-permeable fluorescent tracer in intact cells.
(§2) Fig. 5 Schematic illustrations of the RAS cellular target engagement and RAS:SOS protein–protein interaction assay. (a) NanoBRET target engagement (TE) assay: when the fusion proteins LgBiT-RAS and SmBiT(q)-RAS interact in live-cells, they form an active luciferase as a BRET donor. The BRET receptor is a fluorescent NanoBRET® tracer that binds specifically to K-RAS. K-RAS binders displace the tracer and reduce the BRET signal in a dose-dependent manner.
(§3) The NanoBRET® TE Intracellular RAS Assay uses NanoBiT® Technology, a structural complementation system comprised of a large luciferase subunit (LgBiT) and a small complementary peptide (SmBiT(q)). Specifically, a fusion protein of LgBiT and full-length RAS is co-expressed with a fusion protein of SmBiT(q) and full-length RAS in cells. When the RAS proteins interact and form multimers, the LgBiT and SmBiT(q) subunits come together to form an active luciferase enzyme that serves as the BRET donor. The energy acceptor is a cell-permeable fluorescent NanoBRET® tracer that binds specifically to RAS. […] After mixing the plate for 1 min and incubation at room temperature for 15 min 1 μL of NanoBRET TE RAS Tracer 01 (final concentration 1 μM) was added followed by another mixing step. After 2 h incubation (37 °C, 5% CO2) and 15 min at room temperature 5 μL of NanoBRET™ Nano-Glo® substrate was added followed by a mixing step.
Target sequence in this assay (P01116 1-188 isoform P01116-2 G12D): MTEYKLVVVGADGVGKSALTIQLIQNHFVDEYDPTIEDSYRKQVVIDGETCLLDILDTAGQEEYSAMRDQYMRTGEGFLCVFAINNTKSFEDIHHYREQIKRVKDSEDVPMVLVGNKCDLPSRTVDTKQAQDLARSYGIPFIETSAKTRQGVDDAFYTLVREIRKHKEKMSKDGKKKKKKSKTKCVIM
Target sequence in this assay (P01116 1-188 isoform P01116-2 G12D): as above

[2] = biological target: K-RAS4B wild-type (Homo sapiens, UniProt P01116); assay: Nucleotide exchange assay (SOS1-mediated GDP/GTP exchange, GDP-Glo), K-RAS4B wild-type; format: biochemical; conditions: K-RAS4B GDP/GTP exchange; eight data points, at least three determinations; (*) single determination
Sequence of K-RAS4B wild-type (Homo sapiens, UniProt P01116) (P01116 1-188 isoform P01116-2): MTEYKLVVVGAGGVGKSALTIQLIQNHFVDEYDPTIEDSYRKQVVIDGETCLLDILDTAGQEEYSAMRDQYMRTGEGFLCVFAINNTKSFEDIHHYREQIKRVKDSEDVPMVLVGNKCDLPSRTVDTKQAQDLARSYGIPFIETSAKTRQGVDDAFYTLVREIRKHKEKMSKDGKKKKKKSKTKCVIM

[3] = biological target: (GTP)K-RAS4B^wt:SOS1 complex (Homo sapiens, UniProt P01116+Q07889); assay: HTRF K-RAS^wt:SOS protein-protein interaction assay
Sequence of (GTP)K-RAS4B^wt:SOS1 complex (P01116 1-188 isoform P01116-2): as above
Sequence of (GTP)K-RAS4B^wt:SOS1 complex (Q07889 564-1049 limits assumed): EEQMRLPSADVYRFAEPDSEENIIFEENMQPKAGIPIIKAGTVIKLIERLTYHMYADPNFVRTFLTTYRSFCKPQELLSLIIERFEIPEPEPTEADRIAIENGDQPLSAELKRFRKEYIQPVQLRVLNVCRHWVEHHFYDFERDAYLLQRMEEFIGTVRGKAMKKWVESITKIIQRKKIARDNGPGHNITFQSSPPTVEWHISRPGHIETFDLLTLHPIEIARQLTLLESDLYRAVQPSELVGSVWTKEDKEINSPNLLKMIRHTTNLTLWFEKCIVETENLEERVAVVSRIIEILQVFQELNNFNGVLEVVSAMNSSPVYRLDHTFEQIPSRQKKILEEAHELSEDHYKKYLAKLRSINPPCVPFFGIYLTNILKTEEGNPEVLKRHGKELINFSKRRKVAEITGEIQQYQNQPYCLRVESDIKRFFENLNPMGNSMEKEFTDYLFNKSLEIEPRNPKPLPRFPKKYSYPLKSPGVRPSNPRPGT
Description: The interaction of (GTP)K-RAS4B^wt and SOS was measured with a HTRF assay using an SOS-specific antibody labeled with terbium cryptate as HTRF (homogeneous time-resolved fluorescence) donor and a K-RAS4B^wt specific antibody labeled with an HTRF acceptor (XL665).[52]
To test the compounds effect on the interaction of K-RAS and SOS1 proteins a commercial assay from Revvity (product code 64[sequence]) was used. The K-RAS WT/SOS1 PPI assay includes tagged human recombinant partners (K-RAS WT and SOS1) and labelled anti-tag reagents for HTRF detection. Without an inhibitor, K-RAS WT loaded with GTP binds to SOS1, and the binding of each detection reagent to its tagged target generates an HTRF signal. In the presence of K-RAS WT/SOS1 inhibitors or GTP competitors, the HTRF signal decreases.
After an incubation step for 10 min at room temperature 3 μL Tag1-KRAS protein was added followed by 7.5 μL detection mix containing anti-Tag2 antibody labeled with Terbium cryptate and anti-Tag1 antibody labeled with XL665. […] IC50 values were determined from the sigmoidal dose response curves with the Scigilian Analyze software (Scigilian, Monteral, Canada).

[4] = Solubility
[5] = biological target: T2, K-RAS4B^wt (Homo sapiens, UniProt P01116); assay: NanoBRET target engagement assay, K-RAS4B^wt (displacement of BI2852 tracer from SI/SII site); format: cell-based; conditions: live cells; displacement of BI2852 from the K-Ras4B SI/II binding-site; read-out: K-RAS4B^wt NanoBRET TE KD
T2 construct: a fusion protein of LgBiT and full-length RAS; a fusion protein of SmBiT(q) and full-length RAS in cells; expressed in transfected cells; host or cells: HEK239T (so in the source)
T2 sequence (P01116 1-188 isoform P01116-2): as the sequence (P01116 1-188 isoform P01116-2) above
T2 sequence (P01116 1-188 isoform P01116-2): as above
Description: as §1, §2, §3

[6] = biological target: T1, K-RAS4B^G12D; assay: biochemical; conditions: for IC50: K-RAS4B GDP/GTP exchange, eight data points, at least three determinations
Target sequence in this assay (P01116 1-188 isoform P01116-2 G12D): as the sequence (P01116 1-188 isoform P01116-2 G12D) above

[7] = biological target: K-RAS4B G12V (Homo sapiens, UniProt P01116, G12V); assay: Nucleotide exchange assay (SOS1-mediated GDP/GTP exchange, GDP-Glo), K-RAS4B G12V; format: biochemical; conditions: eight data points, at least three determinations, (*) single determination
Sequence of K-RAS4B G12V (P01116 1-188 isoform P01116-2 G12V): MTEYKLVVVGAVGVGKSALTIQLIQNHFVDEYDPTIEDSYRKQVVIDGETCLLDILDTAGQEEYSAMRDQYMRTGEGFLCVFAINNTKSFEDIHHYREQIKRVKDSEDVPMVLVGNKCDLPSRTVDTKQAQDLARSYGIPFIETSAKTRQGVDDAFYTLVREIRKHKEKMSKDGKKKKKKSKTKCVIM

[8] = system: ERK phosphorylation in SNU-1 cells (K-RAS4B^G12D); assay: HTRF ERK phosphorylation assay in SNU-1 cells; format: cell-based; conditions: Homo sapiens, SNU1, read-out: SNU-1 pERK inhibition IC50
Description: (§4) For selected betulinic acid derivatives quantitative ERK and AKT phosphorylation was measured in SNU-1 (K-RAS4B^G12D) and A375 cells (K-RAS4B^wt) to determine whether pentacyclic triterpenes act via the RAS-RAF-MEK-ERK or the RAS-PI3K-PDK1-AKT downstream cascade (Table 2). The betulinic acid derivatives tested, had no activity on the ERK pathway, but inhibited AKT phosphorylation with micromolar IC50 values in agreement with literature reports.[50,51] […] No activity was detected in A375 cells carrying a BRAF but no K-RAS mutation.
(§5) SNU-1 cells harbouring the K-RASG12D mutation (primary carcinoma of the stomach), were grown in RPMI medium with 10% FBS (fetal bovine serum) and 1% L-Gln. Cells were plated in white small volume cell culture 384 well microplates (Greiner BioOne GmbH) at a density of 50.000 cells per well/6 μL in RPMI medium with 1% L-glut (serum-free medium). The plated cells were placed in a high humidity incubator (37 °C, 5% CO2 and 90% humidity) to avoid evaporation of the small amount of medium for 3 hours before the compounds were added. With the Echo520 liquid handler the cells were treated with a 3-fold 8-point serial dilution of the compounds, with a top final concentration of 330 μM and a final DMSO concentration of 1%. After compound transfer, cells were incubated for 1 hour in the high humidity incubator before the cells were treated with 3 μL of 9 nM EGF diluted in serum-free medium (final EGF concentration in the well 3 nM) for 15 minutes. The lysis buffer from the Phospho-ERK 1/2 (Thr202/Tyr204)- and the Total ERK1/2 LANCE Ultra TR-FRET Cellular Detection Kit (PerkinElmer Inc.) was prepared to a 4-fold concentration in water. Then 3 μL of the lysis buffer were added to each well and the plates were shaken at 300 rpm for 30 minutes at room temperature. During this incubation the antibody detection mix was prepared according to the manufacturer's protocol. In the final step 3 μL of antibody detection mix were added to each well. The plates were sealed with an aluminium sticky foil and incubated over night at room temperature for 20 hours. The detection was performed with the EnVision2104 Multilabel Reader.

[9] = system: AKT phosphorylation in A375 cells (K-RAS4B^wt); assay: HTRF AKT phosphorylation assay in A375 cells; format: cell-based; conditions: Homo sapiens, A-375; A375 cells (K-RAS4B^wt, BRAF mutation); two determinations; read-out: A375 pAKT inhibition IC50
Description: as §4, §5

[10] = system: ERK phosphorylation in A375 cells (K-RAS4B^wt); assay: HTRF ERK phosphorylation assay in A375 cells; format: cell-based; conditions: Homo sapiens, A-375; A375 cells (K-RAS4B^wt, BRAF mutation); two determinations; read-out: A375 pERK inhibition IC50
Description: as §4, §5

[11] = system: AKT phosphorylation in SNU-1 cells (K-RAS4B^G12D); assay: HTRF AKT phosphorylation assay in SNU-1 cells; format: cell-based; conditions: Homo sapiens, SNU1, read-out: SNU-1 pAKT inhibition IC50
Description: as §4, §5

[12] = system: K-RAS4B wild-type; assay: Nucleotide exchange assay (SOS1-mediated GDP/GTP exchange, GDP-Glo), K-RAS4B wild-type; format: biochemical; conditions: GDP/GTP exchange IC50 of wild-type versus G12D/G12V mutants

Row | Compound | Kd [1] [µM] | IC50 [2] [µM] | Kd [3] [µM] | solubility [4] [µM] | Kd [5] [µM] | IC50 [6] [µM] | IC50 [7] [µM] | IC50 [8] [µM] | IC50 [9] [µM] | IC50 [10] [µM] | IC50 [11] [µM] | selectivity factor, mutant versus K-RAS4B^wt [12] | inhibition of GDP/GTP exchange (in words) ([6]; K-RAS4B form mostly not given, inactive = IC50 > 100 μM (Fig. 3 legend))
1 | C=C(C)[C@@H]1CC[C@]2(C(=O)O)CC[C@]3(C)[C@H](CC[C@@H]4[C@@]5(C)CC[C@H](OC(=O)c6sccc6C(=O)O)C(C)(C)[C@@H]5CC[C@]43C)[C@@H]12 [Compound 18] | 20.1 | 1.27 ± 0.69 | > 50 | 255 (≈ 156 µg/mL) | 21.8 | 1.83 ± 1.45 |  |  |  |  |  |  | 
2 | C=C(C)[C@@H]1CC[C@]2(C(=O)O)CC[C@]3(C)[C@H](CC[C@@H]4[C@@]5(C)CC[C@H](OC(=O)c6nccnc6C(=O)O)C(C)(C)[C@@H]5CC[C@]43C)[C@@H]12 [Compound 23] |  | 23.3 ± 2.9 |  | 434 (≈ 263 µg/mL) |  | 11.8 ± 1 | 9.61 ± 4.82 | > 1000 | > 1000 | > 1000 | 61.7 |  | 
3 | C=C(C)[C@@H]1CC[C@]2(C(=O)O)CC[C@]3(C)[C@H](CC[C@@H]4[C@@]5(C)CC[C@H](OC(=O)c6c(F)ccc(F)c6C(=O)O)C(C)(C)[C@@H]5CC[C@]43C)[C@@H]12 [Compound 24] |  | 15.7 ± 4.3 |  | 378 (≈ 242 µg/mL) |  | 8.63 ± 3.72 | 15.4 ± 2.9 | 134 | > 1000 | > 1000 | 13 |  | 
4 | C=C(C)[C@@H]1CC[C@]2(C(=O)O)CC[C@]3(C)[C@H](CC[C@@H]4[C@@]5(C)CC[C@H](OC(=O)c6cc(F)c(F)cc6C(=O)O)C(C)(C)[C@@H]5CC[C@]43C)[C@@H]12 [Compound 25] |  | 39.1 ± 5.4 |  | 240 (≈ 154 µg/mL) |  | 5 ± 0.91 | 9.79 ± 3.41 | > 300 | > 1000 | > 1000 | 18.1 | 4–6 | 
5 | C=C(C)[C@@H]1CC[C@]2(C(=O)O)CC[C@]3(C)[C@H](CC[C@@H]4[C@@]5(C)CC[C@H](OC(=O)c6cc(OC)c(OC)cc6C(=O)O)C(C)(C)[C@@H]5CC[C@]43C)[C@@H]12 [Compound 26] |  | > 100 |  | 158 (≈ 105 µg/mL) |  | 36.1 ± 14.7 | 26.4 ± 3.9 | > 300 | > 1000 | > 1000 | 83.7 |  | only moderate activity
6 | C=C(C)[C@@H]1CC[C@]2(COC(=O)/C=C\C(=O)O)CC[C@]3(C)[C@H](CC[C@@H]4[C@@]5(C)CC[C@H](O)C(C)(C)[C@@H]5CC[C@]43C)[C@@H]12 [Compound 30] |  | 69.2 ± 6.8 |  |  |  | 6.8 ± 2.32 | 3.19 ± 0.19 |  |  |  |  | 15–20 | 
7 | C=C(C)[C@@H]1CC[C@]2(COC(=O)CCC(=O)O)CC[C@]3(C)[C@H](CC[C@@H]4[C@@]5(C)CC[C@H](OC(=O)CCC(=O)O)C(C)(C)[C@@H]5CC[C@]43C)[C@@H]12 [Compound 32] | 29.1 | 1.01 ± 0.31 | > 100 |  | 40.8 | 0.71 ± 0.18 | 1.37 ± 0.28 |  |  |  |  |  | 
8 | C=C(C)[C@@H]1CC[C@]2(COC(=O)CCC(=O)O)CC[C@]3(C)[C@H](CC[C@@H]4[C@@]5(C)CC[C@H](OC(=O)c6cc(F)c(F)cc6C(=O)O)C(C)(C)[C@@H]5CC[C@]43C)[C@@H]12 [Compound 34] | > 100 | 1.18 ± 0.02 | > 100 | 410 (≈ 298 µg/mL) |  | 0.66 ± 0.13 | 2.85 ± 0.14 |  |  |  |  |  | 
9 | C[C@H]1[C@H](C)CC[C@]2(C(=O)O)CC[C@]3(C)C(=CC[C@@H]4[C@@]5(C)CC[C@H](OC(=O)c6c(F)ccc(F)c6C(=O)O)C(C)(C)[C@@H]5CC[C@]43C)[C@H]12 [Compound 36] | > 50 | 3.46 ± 1.94 | > 50 | 424 (≈ 272 µg/mL) |  | 2.64 ± 1.75 | 2.52 ± 0.99 |  |  |  |  |  | 
10 | C[C@H]1[C@H](C)CC[C@]2(C(=O)O)CC[C@]3(C)C(=CC[C@@H]4[C@@]5(C)CC[C@H](OC(=O)c6cc(F)c(F)cc6C(=O)O)C(C)(C)[C@@H]5CC[C@]43C)[C@H]12 [Compound 37] | 16.6 | 3.94 ± 1.02 | > 50 | 220 (≈ 141 µg/mL) |  | 2.53 ± 0.63 | 2.15 ± 0.31 |  |  |  |  |  | 
